Measurements from patent US20230012368A1 (Hoffmann-La Roche Inc., priority 2018, published 2023).
Structures can show the parent of a compound that is named as a salt.

What follows are compounds tested on Acinetobacter baumannii ATCC 17978 (assay: Antimicrobial susceptibility testing: 90% growth inhibitory concentration (IC90) determination). Settings: 90% growth inhibitory concentration; Acinetobacter baumannii ATCC17978; Iso-Sensitest broth, OD 600 nm over 16h; read-out: ATCC17978 IC90.
Format: cell-based
In short: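 Growth of the Acinetobacter baumannii strain was followed by optical density at 600 nm every 20 minutes for 16h at 35±2° C. Inoculum was ~5×10^(5) CFU/ml in Iso-Sensitest medium, with twofold compound dilutions (e.g. 50 to 0.097 μM final). The 90% inhibitory concentration was derived in log-phase growth.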
`CCc1cc(Nc2nccn3c(-c4ccc(OC(F)F)c(F)c4F)cnc23)ccc1C(=O)N[C@@H](C)CN` [Example 312, N-[(2S)-1-aminopropan-2-yl]-4-[[3-[4-(difluoromethoxy)-2,3-difluorophenyl]imidazo[1,2-a]pyrazin-8-yl]amino]-2-ethylbenzamide; hydrochloride] gave an IC90 of 1200 nM.
For `COc1ccc(-c2cnc3c(Nc4ccc(C(=O)N(C)CCCC(=O)N5CCNCC5)c(C)c4)nccn23)cc1F` [Example 4, 4-[[3-(3-fluoro-4-methoxy-phenyl)imidazo[1,2-a]pyrazin-8-yl]amino]-N,2-dimethyl-N-(4-oxo-4-piperazin-1-yl-butyl)benzamide], the IC90 was 290 nM.

Same assay, conditions: Acinetobacter baumannii, ATCC17978, 16 h, 90% growth inhibitory concentration; Acinetobacter baumannii ATCC17978; Iso-Sensitest broth, OD 600 nm over 16h; read-out: ATCC17978 IC90
Work on `CCc1cc(Nc2nccn3c(-c4ccc(OC)c(F)c4F)cnc23)ccc1C(=O)NCCCNC(=O)C(CNC(=N)N)NC(=O)[C@@H](N)CCC(=O)O` (mixture of isomers) [Example 155, (4S)-4-Amino-5-((1-((3-(4-((3-(2,3-difluoro-4-methoxyphenyl)imidazo[1,2-a]pyrazin-8-yl)amino)-2-ethylbenzamido)propyl)amino)-3-guanidino-1-oxopropan-2-yl)amino)-5-oxopentanoic acid trihydrochloride (Epimers 1:1)] yielded an IC90 of 340 nM.
Compound `Cc1cc(Nc2nccn3c(-c4ccc(Cl)c(F)c4F)cnc23)ccc1C(=O)NCCCCN` [Example 202, N-(4-aminobutyl)-4-[[3-(4-chloro-2,3 difluorophenyl)imidazo[1,2-a]pyrazin-8-yl]amino]-2-methylbenzamide; hydrochlo-ride] has an IC90 of 460 nM.
For `CCc1cc(Nc2nccn3c(-c4ccc(OC(F)F)c(F)c4F)cnc23)ccc1C(=O)NCC1(O)CNC1` [Example 307, 4-[[3-[4-(difluoromethoxy)-2,3-difluorophenyl]imidazo[1,2-a]pyrazin-8-yl]amino]-2-ethyl-N-[(3-hydroxyazetidin-3-yl)methyl]benzamide;hydro-chloride], the IC90 was 620 nM.
In the case of `Cc1cc(Nc2nccn3c(-c4ccc(OC(F)F)cc4)cnc23)ccc1C(=O)NCCCN1CCOCC1` [Example 209, 4-[[3-[4-(difluoromethoxy)phenyl]im-idazo[1,2-a]pyrazin-8-yl]amino]-2-methyl-N-(3-morpholin-4-ylpropyl)benzamide], the IC90 is reported as 590 nM.
With `Cn1cc(CNC(=O)c2ccc(Nc3nccn4c(-c5ccc(OCC#N)c(F)c5F)cnc34)cc2Cl)ccc1=O` [Example 87, 2-chloro-4-[[3-[4-(cyanomethoxy)-2,3-difluoro-phenyl]imidazo[1,2-a]pyrazin-8-yl]amino]-N-[(1-methyl-6-oxo-3-pyridyl)methyl] benzamide] the IC90 was 80 nM.
Work on `Cc1cc(Nc2nccn3c(-c4ccc(OC(F)F)cc4)cnc23)ccc1C(=O)N(C)CCCSc1nnnn1CCN(C)C` [Example 177, 4-[[3-[4-(difluoromethoxy)phenyl]im-idazo[1,2-a]pyrazin-8-yl]amino]-N-[3-[1-[2-(dimethylamino)ethyl]tetrazol-5-yl]sulfanylpropyl]-N,2-dimethylbenzamide;2,2,2-trifluoroacetic acid] yielded an IC90 of 900 nM.
Work on `COc1ccc(-c2cnc3c(Nc4ccc(C(=N)NCC(N)=O)c(C)c4)nccn23)cc1` [Example 17] yielded an IC90 of 550 nM.
`CCc1cc(Nc2nccn3c(-c4ccc(Oc5ccc(OC)cn5)c(F)c4F)cnc23)ccc1C(=O)NCCNC(=O)[C@@H](N)CCNC(=N)N` [Example 449, N-[2-[[(2S)-2-amino-4-guanidino-butanoyl]amino]ethyl]-4-[[3-[2,3-difluoro-4-[(5-methoxy-2-pyridyl)oxy]phenyl]imidazo [1,2-a]pyrazin-8-yl]amino]-2-ethyl-benzamide; formic acid] was tested, and the IC90 was 530 nM.
`COc1ccc(-c2cnc3c(Nc4ccc(C(=O)NCC5CCNCC5)c(C)c4)nccn23)cc1F` [Example 213, 4-[[3-(3-fluoro-4-methoxyphenyl)imidazo[1,2-a]pyrazin-8-yl]amino]-2-methyl-N-(piperidin-4-ylmethyl)benzamide;hydrochlo-ride] gave an IC90 of 660 nM.
`COc1ccc(-c2cnc3c(Nc4ccc(C(=O)NCCNC(=O)[C@@H]5CCNC[C@@H]5O)c(C)c4)nccn23)c(F)c1F` [Example 459, (3R,4R)-N-[2-[[4-[[3-(2,3-difluoro-4-methoxy-phenyl)imidazo[1,2-a]pyrazin-8-yl]amino]-2-methyl-benzoyl]amino]ethyl]-3-hydroxy-piperidine-4-carboxamide; formic acid] showed an IC90 of 940 nM.
For `COc1ccc(-c2cnc3c(Nc4ccc(C(=O)NCCCCCCN)c(Cl)c4)nccn23)c(F)c1F` [Example 495, N-(6-aminohexyl)-2-chloro-4-((3-(2,3-difluoro-4-methoxyphenyl)imidazo[1,2-a]pyrazin-8-yl)amino)benzamide hydrochloride], the IC90 was 34 nM.
`CCc1cc(Nc2nccn3c(-c4ccc(OC)c(F)c4F)cnc23)ccc1C(=O)NCC(N)CC` (stereo not drawn) [Example 523, N-(2-aminobutyl)-4-((3-(2,3-difluoro-4-methoxyphenyl)imidazo[1,2-a]pyrazin-8-yl)amino)-2-ethylbenzamide hydrochloride] showed an IC90 of 250 nM.
`CCc1cc(Nc2nccn3c(-c4ccc(OC(F)F)c(F)c4F)cnc23)ccc1C(=O)NCCCN1CCCC1` [Example 95, 4-((3-(4-(difluoromethoxy)-2,3-difluorophenyl)imidazo [1,2-a]pyrazin-8-yl)amino)-2-ethyl-N-(3-(pyrrolidin-1-yl)propyl)benzamide] gave an IC90 of 190 nM.
`CCc1cc(Nc2nccn3c(-c4ccc(OC)c(F)c4F)cnc23)ccc1C(=O)NCC(=O)N1CCN[C@H](CO)C1` [Example 464, 4-[[3-(2,3-difluoro-4-methoxy-phenyl)imidazo[1,2-a]pyrazin-8-yl]amino]-2-ethyl-N-[2-[(3S)-3-(hydroxymethyl)piperazin-1-yl]-2-oxo-ethyl]benzamide] was tested, and the IC90 was 240 nM.
With `CCc1cc(Nc2nccn3c(-c4ccc(OC)c(F)c4F)cnc23)ccc1C(=O)NCC(O)CO` (stereo not drawn) [Example 483, 4-((3-(2,3-difluoro-4-methoxyphenyl)imidazo[1,2-a]pyrazin-8-yl)amino)-N-(2,3-dihydroxypropyl)-2-ethylbenzamide] the IC90 was 210 nM.
For `CCc1cc(Nc2nccn3c(-c4ccc(OC)c(F)c4F)cnc23)ccc1C(=O)NCC(N)CO` (stereo not drawn) [Example 525, N-(2-amino-3-hydroxypropyl)-4-((3-(2,3-difluoro-4-methoxyphenyl)imidazo[1,2-a]pyrazin-8-yl)amino)-2-ethylbenzamide hydrochloride], the IC90 was 350 nM.
`Cc1cc(Nc2nccn3c(-c4ccc(OC(F)F)cc4)cnc23)ccc1C(=O)N(CCN1CCNCC1)C1CC1` [Example 284, N-cyclopropyl-4-[[3-[4-(difluoromethoxy)phenyl]im-idazo[1,2-a]pyrazin-8-yl]amino]-2-methyl-N-(2-piperazin-1-ylethyl)benzamide;hydrochlo-ride] was tested, and the IC90 was 2100 nM.
Work on `Cc1cc(Nc2nccn3c(-c4ccc(OC(F)F)cc4)cnc23)ccc1C(=O)NCCN1CCOCC1` [Example 230, 4-[[3-[4-(difluoromethoxy)phenyl]im-idazo[1,2-a]pyrazin-8-yl]amino]-2-methyl-N-(2-morpholin-4-ylethyl)benzamide] yielded an IC90 of 1200 nM.
Work on `CCCc1cc(Nc2nccn3c(-c4ccc(OC(F)F)cc4)cnc23)ccc1C(=O)NC` [Example 152, 4-((3-(4-(Difluoromethoxy)phenyl)imidazo[1,2-a]pyrazin-8-yl)amino)-N-methyl-2-propylbenzamide] yielded an IC90 of 1100 nM.
